The values below come from patent US20190054109A1, “An antiviral composition and a method for application thereof” (ALLA CHEM, LLC, priority 2017, published 2019).

The test system of one series is gT1b NS5B HCV. The series is described as follows: Anti-HCV activity in Huh7 cell line stably transfected with an HCV replicon. Type of series: cell-based, hepatitis C virus (HCV) genotype 1b. Here is the method:
Evaluation of anti-HCV activity and cytotoxicity for compositions comprising the prodrug of formula 1.1 and Sovaldi®. The antiviral activity of tested compositions comprising the prodrug was evaluated using an Huh7 human hepatocellular carcinoma cell line stably transfected with an HCV replicon. A cell suspension in a complete culture medium (DMEM 1×, Cellgro; cat. #10-013-CV) was transferred into 96-well plates (50 μl per well) with a final density of 7500 cells per well. The serial dilutions of tested prodrugs were prepared from a fresh 200-fold generic solution in DMSO with 11 concentration points and 3-fold dilution for each step starting from 20 nM in a complete medium and were used as 2-fold solutions in two replicates. Minimum 4 hours after planting the cells, 50 μl of serial prodrug dilutions was added to each well. The final prodrug concentration varied from 10 nM to 0.1 pM and that of DMSO, 0.5%. The plate with cells was incubated for 3 days at 37° C. under humidified 5% CO2. Upon completion of incubation, the medium was removed by turning the plate over and shaking it carefully. The cells were fixed for one minute with 100 μl of a 1:1 acetone:methanol solution, washed 3 times with a phosphate buffer (PBS), and blocked for 1 h at room temperature using a 10% fetal bovine serum (FBS) in PBS (150 μl/well). The cells were washed 3 times with PBS and incubated for 2 h at 37° C. with anti-NS5B HCV antibodies (100 μl/well) using Affinity BioReagents (cat. # MA1-080) and diluting the generic solution (1 mg/ml) in a ratio of 1:4000 in 10% FBS-PBS. The cells were washed 3 times with PBS and developed by an OPD solution (100 μl/well) using for each plate one OPD tablet dissolved in a citrate/phosphate buffer (12 ml)), whereto 5 μl of 30% H2O2 was added, for 30 minutes in the dark at room temperature. The reaction was stopped by 2N H2SO4 (100 μl/well), and OD490 was measured using the multifunctional reader Victor^3 V 1420 (Perkin Elmer). The values of EC50 for tested prodrugs were measured from an activity curve plotted using the GraphPad Prizm software.

A short description of the next series: physchem. Particulars: simulated gi fluid. Here is the method: Evaluation of stability in biological matrix for compositions comprising the prodrug of formula 1.1. Initial compositions comprising the prodrug of formula 1.1 (the tested compounds) were prepared with a concentration of 10 mM in DMSO. From said compositions, 100-fold working solutions were prepared with a concentration of 100 μM in a mixture of acetonitrile: water with a volumetric ratio of 1:1.
The tested composition comprising the prodrug of formula 1.1 in a final concentration of 1 μM was incubated in artificial gastric juice (0.2% NaCl in 0.7% v/v HCl) and artificial intestinal juice (0.05M KH2PO4, pH 6.75). The incubation was performed in a Vortemp56 shaking incubator at 37° C. with stirring at a rate of 300 rev/min. […] The samples were then centrifuged, and the supernatant (150 μl) was sampled for analysis […]. The incubation was performed in two replicates, with each sample measured twice.
Samples were analyzed using an HPLC-MS/MS technique developed for each tested prodrug, wherein the chromatographic system 1290 Infinity II (Agilent Technologies) was combined with the tandem mass spectrometer QTRAP5500 (AB Sciex). When developing conditions for mass-spectrometric detection, the solutions of tested compounds in a mixture of acetonitrile-water (1:1) with a concentration of 100 ng/ml were injected directly into the mass spectrometer using a syringe pump with electrospray ionization carried out in a positive ion mode. Scanning in a total ion current mode (MS1) allowed us to identify a molecular ion for each compound, and basic product ions were recorded in MS2 mode. Then, to attain maximum sensitivity, the MS/MS technique was optimized in MRM mode. In quantitative chromatogram processing, the most intensive MRM transition was used for the analyte and the internal standard. Separation was carried out by means of linear gradient elution chromatography on a YMC Triart C18 column (50×2 mm, 1.9 μm) in a mobile phase consisting of 0.1% formic acid in water and 0.1% formic acid in acetonitrile. Tolbutamide (Fluka) was used as the internal standard.
Half-life (T1/2) was found from the kinetics of tested prodrug elimination in an antiviral composition during incubation in a biological matrix. The computations were based on the values of chromatographic peak areas for compounds in test samples normalized to the internal standard signal. From linear dependence of log normalized areas of chromatographic peaks on time, the constant of elimination rate was calculated (k is linear section slope).

The nature of series [1]: Stability in human liver S9 fraction. It counts as in vitro ADME. Here is the method: Proteins were deposited on ice for 15 min. The samples were then centrifuged for 10 min at 3000 rpm, and the supernatant (150 μl) was sampled for analysis.
Tolbutamide (Fluka) was used as the internal standard.

[2] abbreviates: Hepatitis C virus, Huh-7, gT1b HCV replicon in Huh7, 10% FBS.

As a reminder, the EC50 is the concentration at which the effect is half-maximal. A lower EC50 goes with a more potent agent. In general, EC90 refers to the concentration at which the effect reaches the 90% level. The low end stands for greater potency, the high end for weaker potency.

For `C[C@H](N[P@](=O)(OC[C@H]1O[C@@H](n2ccc(=O)[nH]c2=O)[C@](C)(F)[C@@H]1O)Oc1ccccc1)C(=O)OC1CCC1` [Prodrug 1.1, cyclobutyl (S)-2-{(S)-[(2R,3R,4R,5R)-5-(3,4-dihydro-2,4-dioxo-2H-pyrimidin-1-yl)-3-hydroxy-4-methyl-4-fluoro-tetrahydro-furan-2-ylmethoxy]-phenoxy-phosphorylamino}-propanoate], the EC50 in the series with gT1b NS5B HCV (setting [2]) lay in the range of 0.015 to 0.027 µM. Moreover, in the series with gT1b NS5B HCV (setting [2]), it took 0.128 µM to reach the 90% level (EC90). Moreover, in the series on gT1b NS5B HCV (comparison of EC50/EC90), the “activity against gT1b HCV relative to Sovaldi” value was “more than three times more active”. Also, the half-life at 1 μM in the series “physchem” (T1/2 SGF, artificial gastric juice, 37° C.) is 12.7 to 15 h; in the series “physchem” (pH 6.75), > 24 h; in series [1] (pH 7.4, human liver S9 fraction 1 mg/ml protein, 37° C., 1 μM, read-out: T1/2 Human S9 (converted)), 3 min. Further, the “metabolic rate in human liver microsomal S9 fraction relative to Sovaldi (faster)” value in series [1] (ratio of T1/2 in human S9) turned out to be 11 times.
